Measured values reported in PubChem BioAssay (NCI).
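Protocol summary: plate cells (96-well), add compound at 5 concentrations, incubate 48 h, interpolate endpoints linearly. GI50 = concentration required for 50% inhibition of growth. At the TGI there is no net growth.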

Assays:
Test in all cases: DTP human tumour cell line panel, 48 h
ACHN renal = system: ACHN renal
EKVX NSCLC = system: EKVX NSCLC
LOX IMVI melanoma = system: LOX IMVI melanoma
NCI-H23 lung = system: NCI-H23 lung
NCI-H460 lung = system: NCI-H460 lung
OVCAR-3 ovarian = system: OVCAR-3 ovarian
OVCAR-8 ovarian = system: OVCAR-8 ovarian
IGROV1 ovarian = system: IGROV1 ovarian

Compound | GI50 (ACHN renal) [µM] | TGI (ACHN renal) [µM] | GI50 (EKVX NSCLC) [µM] | TGI (EKVX NSCLC) [µM] | GI50 (LOX IMVI melanoma) [µM] | TGI (LOX IMVI melanoma) [µM] | GI50 (NCI-H23 lung) [µM] | TGI (NCI-H23 lung) [µM] | GI50 (NCI-H460 lung) [µM] | TGI (NCI-H460 lung) [µM] | GI50 (OVCAR-3 ovarian) [µM] | TGI (OVCAR-3 ovarian) [µM] | GI50 (OVCAR-8 ovarian) [µM] | TGI (OVCAR-8 ovarian) [µM] | GI50 (IGROV1 ovarian) [µM] | TGI (IGROV1 ovarian) [µM]
NC(N)=N/N=C/c1c(-c2ccsc2)nc2sccn12 | 16.9 | 32 | 15.1 | 29.4 | 17.6 | 33.2 | 13.5 | 26.4 | 14.8 | 28 | 8.8 | 21.2 | 31.1 | 61.7 | – | –
C#CCOc1cccc(-c2ncc3cc(NC(=O)CCl)ccc3n2)c1 | 1.72 | 3.19 | – | – | – | – | 1.87 | 4.71 | 2.16 | 4.83 | 1.93 | 3.79 | – | – | 1.8 | 4.01
CNCc1ccccc1-c1csc([C@@H](C)Nc2nc(C)nc3cc(OC)c(OC)cc23)c1 | 1.33 | 2.62 | 1.61 | 12.9 | 1.57 | 2.98 | 2.83 | 15.5 | 2.03 | 4.16 | 2.42 | 8.04 | 2.29 | 7.65 | 1.4 | 5.23
CC/C=C\C[C@H](O)C/C=C1/C(=O)C(Cl)=C[C@@H]1C/C=C\CCCC(=O)OC | 0.378 | 0.849 | 1.03 | 3.51 | 0.258 | 0.52 | 0.523 | 1.97 | 0.558 | 2.22 | 0.525 | 1.88 | 0.347 | 0.864 | 0.867 | 3.35
C=C1C(=O)OC2CC(C)C(C(CC(C)=O)OC(C)=O)=CCC12 (stereo not given) | – | 22.4 | – | 26.6 | – | 18.8 | – | 34.3 | – | 41.9 | – | 20.3 | – | > 51.8 | – | 29
CC(C)NC(=O)OCc1c(COC(=O)NC(C)C)c(-c2cc[n+](COC(=O)C3CC3)cc2)n2c1CCC2 | – | > 100 | – | > 100 | – | > 100 | – | > 100 | – | > 100 | – | > 100 | – | > 100 | – | > 100
Cc1cc(Cl)cc(OCCn2cc(F)cn2)c1-c1nc(N)nc2c1CN(C(=O)NCC(C)(F)F)C2 | 0.184 | > 100 | – | – | 0.0852 | 0.552 | 0.273 | > 100 | 0.0414 | > 100 | 0.54 | > 100 | 0.0776 | > 100 | 0.138 | > 100
CC[As](CC)SC[C@H](C)C(=O)N1CCC[C@H]1C(=O)O | 0.0548 | 0.169 | 0.162 | 1.72 | 0.0458 | 0.102 | 0.222 | 0.616 | 0.418 | 2.17 | 0.0135 | 0.0347 | 0.123 | 0.472 | 0.214 | 1.11
Cc1ccc(S(=O)(=O)Nc2ccccc2C=O)cc1 | – | 46.7 | – | 61.1 | – | 27.5 | – | 66.8 | – | 47 | – | 60.1 | – | 34.1 | – | 38.3
C/C=C(\C)C(=O)O[C@H]1C=CC(=O)O[C@H]1CCC(=O)[C@H](C)O | 11 | 23.4 | 17.8 | 33.6 | 11.8 | 27.4 | 20.5 | 43.9 | 19.2 | 43.2 | 9.58 | 22.3 | 20.7 | 52.8 | 22 | 46.8
COc1cccc(C2CC(C)(O)Oc3cc4c(cc32)OCO4)c1O (stereo not given) | – | > 100 | – | 99.4 | – | > 100 | – | 92.9 | – | > 92.7 | – | 42.2 | – | 67.8 | – | > 100
CC(=O)N=C1N(/C=C2\C(=O)Oc3ccccc3C2=O)C(=O)/C(=C/c2cccc(Cl)c2Cl)N1C | – | 34.3 | – | > 100 | – | > 100 | – | > 100 | – | – | – | 20 | – | 44.3 | – | > 100
CSc1nc(=O)n(CCC#N)nc1SC | – | > 100 | – | > 100 | – | 43.5 | – | > 100 | – | > 100 | – | 32 | – | > 100 | – | > 100
Oc1ccc(Nc2ncnc3c2sc2ncccc23)cc1 | < 0.01 | 1.42 | 0.097 | > 100 | 0.0368 | > 100 | < 0.01 | 9.53 | < 0.01 | > 100 | 0.397 | > 100 | 0.0261 | > 30.9 | > 23.8 | > 100
COc1ccc(OC)c2c1[nH]c(=O)c1c3ccccc3cn21 | 1.11 | 2.37 | 1.34 | 3.76 | 1.4 | 2.88 | 1.49 | 3.04 | 1.1 | 2.73 | 1.64 | 3.31 | 1.26 | 3.36 | < 0.0281 | 1.43
CCCCC#CC1=C(Br)C(=O)OC1 | 2.24 | > 21 | 3.79 | 10.7 | 0.318 | – | 1.5 | 9.23 | 14 | 38.8 | 0.453 | 2.27 | 1.75 | 10.2 | 0.368 | 3.33
COc1ccc(C2SC(N)=Nc3c2c(C)nn3C(=O)c2ccncc2)cc1OC (stereo not given) | – | > 10 | – | > 10 | – | > 10 | – | > 10 | – | > 10 | – | > 10 | – | > 10 | – | > 10
Nc1ccc([N+](=O)[O-])cc1N=C/C=C/c1ccccc1 | 34.4 | > 100 | 19.1 | > 100 | 3.98 | 80.7 | 18.4 | > 100 | 11.3 | 41.9 | 4.95 | 26.8 | 23.5 | > 100 | 7.48 | 42.7
